Values after ≈ are worked out from the molar mass of the structure shown. Read-outs that look alike come from different tables or passages of the source.
What was measured:
[1] = Plasma pharmacokinetics after s.c. administration; set-up: species or system CD-1 mice; conditions: mouse, in vivo, sc
Protocol: Plasma pharmacokinetics (PK) of V-r after subcutaneous (s.c.) administration (20 and 121 mg/kg) was determined in naive male CD-1 mice (n = 3/group) using liquid chromatography-tandem mass spectrometry for analysis with a lower limit of quantitation of 5 ng/ml (Table 3).

[2] = Thermodynamic solubility in saline
[3] = test system: S. agalactiae; experiment: MIC determination in alignment with CLSI guidelines; type: cell-based; conditions: Streptococcus agalactiae
[4] = test system: S. pneumoniae; experiment: as above; type: cell-based; conditions: Streptococcus pneumoniae
[5] = Plasma protein binding, mouse; type: in vitro ADME
[6] = test system: human erythrocytes; experiment: Red blood cell lysis; conditions: fetal bovine serum-deficient media
Excerpt: (§1) Identity was confirmed by ^1H nuclear magnetic resonance and time of flight mass spectrometry, and HCl content was quantified by ion-exchange chromatography.

[7] = test system: HepG2; experiment: HepG2 cell cytotoxicity; conditions: fetal bovine serum-deficient media
Excerpt: as §1

[8] = test system: human renal proximal tubular epithelial cells; experiment: hRPTEC biomarkers cytotoxicity; conditions: primary hRPTEC; cell count, nuclear size, DNA structure, mitochondrial mass, mitochondrial membrane potential, phospholipidosis, glutathione content; fetal bovine serum-deficient media
Excerpt: as §1

[9] = test system: E. coli ATCC 25922; experiment: 9-h thigh muscle infection model in neutropenic CD-1 mice; type: in vivo, Escherichia coli
Protocol: (§2) Using a screening-based strategy, preliminary proof-of-concept studies with V-r employed an abbreviated 9-h thigh muscle infection model in male CD-1 mice rendered neutropenic ([21]). To that end, an E. coli ATCC 25922 isolate was inoculated at 9.7 × 10^4 CFU into both thigh muscles per mouse (n = 5 per experimental group). V-r was administered s.c. every 2 h (110 to 880 mg/kg total dose) starting 1 h postinfection. At 9 h, thigh homogenates were prepared, and CFU were enumerated after culture on CLED (cystine-, lactose-, and electrolyte-deficient) agar. […] In a 24-h thigh muscle infection model, E. coli UTI89 was inoculated at 7.8 × 10^4 CFU into one thigh muscle per mouse (n = 5 to 8 per group) and treated with V-r (total dose, 200 to […]) using an every-6-h dosing regimen from 1 h postinfection. […] Overall, V-r caused an ∼4 to 7.5 log10 reduction in bacterial burden, compared with vehicle control, over the entire dose range.

[10] = test system: E. coli UTI89; experiment: 24-h thigh muscle infection model in neutropenic CD-1 mice; type: in vivo, Escherichia coli; conditions: for Log10 (group geometric mean ± SD CFU/g): n = 5 to 8
Protocol: as §2

[11] = test system: A. baumannii
[12] = Plasma protein binding, human
[13] = test system: E. coli; experiment: microbe, parasite or virus in culture; conditions: Escherichia coli
[14] = test system: A. baumannii; experiment: microbe, parasite or virus in culture; conditions: Acinetobacter baumannii
[15] = total dose over 24 h 1,272 mg/kg

SMILES: CN[C@H](CC(C)C)C(=O)N[C@H]1C(=O)N[C@@H](CC(N)=O)C(=O)N[C@H]2C(=O)N[C@H]3C(=O)N[C@H](C(=O)N[C@H](C(=O)N[C@H](CCCNC(=N)N)C(N)=O)c4cc(O)cc(O)c4-c4cc3ccc4O)[C@H](O)c3ccc(c(Cl)c3)Oc3cc2cc(c3O[C@@H]2O[C@H](CO)[C@@H](O)[C@H](O)[C@H]2O[C@H]2C[C@](C)(N)[C@H](O)[C@H](C)O2)Oc2ccc(cc2Cl)[C@H]1O [V-r]
- Clearance ([1]; 20 mg/kg): 7.8 mL/min/kg
- Vd ([1]; 20 mg/kg): 0.59 L/kg
- Clearance ([1]; 121 mg/kg): 5.4 mL/min/kg
- Vd ([1]; 121 mg/kg): 0.60 L/kg
- solubility thermodynamic ([2]; saline or isotonic, thermodynamic from solid): 373 mg/mL (≈ 232000 µM)

SMILES: CN[C@H](CC(C)C)C(=O)N[C@H]1C(=O)N[C@@H](CC(N)=O)C(=O)N[C@H]2C(=O)N[C@H]3C(=O)N[C@H](C(=O)N[C@H](C(=O)O)c4cc(O)cc(O)c4-c4cc3ccc4O)[C@H](O)c3ccc(c(Cl)c3)Oc3cc2cc(c3O[C@@H]2O[C@H](CO)[C@@H](O)[C@H](O)[C@H]2O[C@H]2C[C@](C)(N)[C@H](O)[C@H](C)O2)Oc2ccc(cc2Cl)[C@H]1O [Vancomycin]
- MIC ([3]; strain B057, clinical isolate (northwest UK)): 0.5 µg/mL (≈ 0.345 µM)
- MIC ([3]; strain B063, clinical isolate (northwest UK)): 1 µg/mL (≈ 0.69 µM)
- MIC [4]: 0.5 µg/mL (≈ 0.345 µM)
- MIC ([4]; ATCC49619): 0.5 µg/mL (≈ 0.345 µM)
- PPB (mouse % bound) [5]: 50/50 % bound
- Red blood cell lysis (CC50) [6]: >750 µM
- HepG2 cell cytotoxicity (CC50) [7]: >750 µM
- hRPTEC biomarkers (CC50) [8]: >100 µM
- Impact on E. coli burden ([9]; dose equivalent to the highest dose of V-r, 9 h): failed to significantly impact E. coli burden
- Log10 change from vehicle (CFU/g) ([9]; total dose over 9 h 800 mg/kg): −0.51 log10 CFU/g
- Log10 (group geometric mean ± SD CFU/g) ([9]; total dose over 9 h 800 mg/kg, n = 5): 6.60 ± 0.66 log10 CFU/g
- Log10 change from vehicle (CFU/g) [10, 15]: −1.23 log10 CFU/g
- Log10 (group geometric mean ± SD CFU/g) [10, 15]: 8.48 ± 1.31 log10 CFU/g
- MIC ([11]; strain B803, clinical isolate (UK) 2016): 128 µg/mL (≈ 88.3 µM)
- MIC ([11]; strain GS2AB1, multiresistant clinical isolate (southern Europe) 2017): 128 µg/mL (≈ 88.3 µM)
- MIC ([11]; strain Naval-81, clinical isolate (USA) 2006): 128 µg/mL (≈ 88.3 µM)
- PPB (human % bound) [12]: 50/50 % bound
- TD solubility in saline ([2]; thermodynamic, in saline): > 50 mg/mL
- MIC ([13]; ATCC25922, strain ATCC 25922, CLSI susceptible reference strain): 128 µg/mL (≈ 88.3 µM)
- MIC ([13]; ATCCBAA2340, strain ATCC BAA-2340, blaKPC, Ambler A): 128 µg/mL (≈ 88.3 µM)
- MIC ([13]; ATCCBAA2469, strain ATCC BAA-2469, blaNDM-1, Ambler B): 128 µg/mL (≈ 88.3 µM)
- MIC ([13]; BW25113, strain BW25113, parent strain of BW25113ΔacrB::kan mutant): 128 µg/mL (≈ 88.3 µM)
- MIC ([13]; NCTC13441, strain NCTC 13441, uropathogenic ST131, blaCTX-M-15, blaOXA-1, blaTEM-1, Ambler A, D): 128 µg/mL (≈ 88.3 µM)
- MIC ([13]; NCTC13462, strain NCTC 13462, blaCTX-M-2, Ambler A): 128 µg/mL (≈ 88.3 µM)
- MIC ([13]; NCTC13846, strain NCTC 13846, clinical isolate, bacteremia, mcr-1): 64 µg/mL (≈ 44.2 µM)
- MIC ([13]; read-out: MICs, all E. coli and A. baumannii strains tested): 64 to 256 µg/mL (≈ 44.2 to 177 µM)
- MIC ([13]; strain AR055, blaNDM-1, blaCMY-6, blaOXA-1, Ambler B, C, D): 128 µg/mL (≈ 88.3 µM)
- MIC ([13]; strain AR089, blaCMY-2, Ambler C): 128 µg/mL (≈ 88.3 µM)
- MIC ([13]; strain AR0114, blaTEM-1B, blaKPC-3, Ambler A): 256 µg/mL (≈ 177 µM)
- MIC ([13]; strain AR0137, blaNDM-6, blaOXA-9, blaCMY-42, blaCTX-M-15, Ambler B): 128 µg/mL (≈ 88.3 µM)
- MIC ([13]; strain AR0150, blaNDM-5, blaTEM-1B, blaCMY-42, Ambler A, B, C): 128 µg/mL (≈ 88.3 µM)
- MIC ([13]; strain AR0346, mcr-1, ESBL, Ambler A): 256 µg/mL (≈ 177 µM)
- MIC ([13]; strain AR0349, mcr-1, ESBL, Ambler A): 128 µg/mL (≈ 88.3 µM)
- MIC ([13]; strain AR0350, mcr-1): 128 µg/mL (≈ 88.3 µM)
- MIC ([13]; strain AR0493, mcr-1, ESBL, Ambler A): 256 µg/mL (≈ 177 µM)
- MIC ([13]; strain AR0494, mcr-1): 128 µg/mL (≈ 88.3 µM)
- MIC ([13]; strain B096a, clinical isolate (UK) 2016, AmpC, Ambler C): 128 µg/mL (≈ 88.3 µM)
- MIC ([13]; strain B808, clinical isolate (UK) 2016, blaTEM-1, blaCTX-M-15, Ambler A): 256 µg/mL (≈ 177 µM)
- MIC ([13]; strain ExPEC H5, clinical isolate (UK)): 128 µg/mL (≈ 88.3 µM)
- MIC ([13]; strain H4/5, clinical isolate, blaTEM-1, blaCTX-M-15, Ambler A): 256 µg/mL (≈ 177 µM)
- MIC ([13]; strain IR3, clinical isolate, blaNDM-1, Ambler B): 128 µg/mL (≈ 88.3 µM)
- MIC ([13]; strain IR45, clinical isolate, blaNDM-1, Ambler B): 128 µg/mL (≈ 88.3 µM)
- MIC ([13]; strain IR57, clinical isolate, blaNDM-1, Ambler B): 256 µg/mL (≈ 177 µM)
- MIC ([13]; strain JW0451-2, BW25113ΔacrB::kan, AcrB-deficient efflux pump mutant): 128 µg/mL (≈ 88.3 µM)
- MIC ([13]; strain Swiss 2 (AF45), clinical isolate (South Africa) ST101, mcr-1): 128 µg/mL (≈ 88.3 µM)
- MIC ([13]; strain Swiss 13, clinical isolate (France) ST69, mcr-1): 128 µg/mL (≈ 88.3 µM)
- MIC ([13]; strain Swiss 15, clinical isolate (Switzerland) ST446, mcr-1, blaCTX-M, Ambler A): 128 µg/mL (≈ 88.3 µM)
- MIC ([13]; strain UTI89, clinical isolate from patient with acute bladder infection): 128 µg/mL (≈ 88.3 µM)
- MIC [14]: 128 µg/mL (≈ 88.3 µM)

SMILES: O=C(O)c1cn(C2CC2)c2cc(N3CCNCC3)c(F)cc2c1=O [Ciprofloxacin]
- Reduction from stasis ([10]; 24-h model, ciprofloxacin group of Table 5 (20 mg/kg total)): 1.4 log10
- Log10 change from vehicle (CFU/g) ([10]; total dose over 24 h 20 mg/kg): −6.39 log10 CFU/g
- Log10 (group geometric mean ± SD CFU/g) ([10]; total dose over 24 h 20 mg/kg): 3.32 ± 0.14 log10 CFU/g

Reference: article PMC8097466, “In Vivo Targeting of Escherichia coli with Vancomycin-Arginine” (Antimicrobial Agents and Chemotherapy, 2021)
